# Data taken from US20130184337A1, “SODIUM ASCORBATE STIMULATION OF ELASTOGENESIS” (THE HOSPITAL FOR SICK CHILDREN, priority 2012, published 2013).
# “Also recorded” adds a separate entry of the source.
# Columns and labels:
# [1] = test system: normal dermal fibroblasts; assay: Collagen fiber deposition (immuno-staining of collagen type I, morphometry); format: cell-based, human
# Procedure: (§1) Cell Cultures—Fibroblasts initially grew out from the explants of these full thickness skin biopsies and were maintained. The primary cultures of fat-derived fibroblasts obtained from Thermogenesis (Rancho Cordova, Calif.) were also tested. In all described experiments, 2-4 passages of both kinds of fibroblasts were used. In experiments aimed at assessing ECM production, cells were initially plated at a concentration of 100,000 cells/dish. Confluent cultures were then maintained either in serum-free medium (DMEM) or in medium supplemented with 5% FBS in the presence of different reagents that were added 1 hour before treatments with SA.
# (§2) Immuno-staining—All cultures maintained in the presence and absence of indicated reagents were either fixed in cold 100% methanol at −20° C. (for detection of elastin) or in 4% paraformaldehyde at room temperature (for detection of collagen I). The multiple parallel cultures were then incubated with 10 μg/ml of polyclonal antibody to tropoelastin (Elastin Products, Owensville, Mich.), or polyclonal antibody to collagen type I (Chemicon, Temecula, Calif.). Cultures were then incubated with the respective fluorescein-conjugated goat anti-rabbit, goat anti-mouse, or rabbit anti-goat secondary antibodies. Nuclei were counterstained with propidium iodide (Sigma, Sigma, St. Louis, Mo.). All of the cultures were then examined with a Nikon Eclipse E1000 microscope attached to a cooled CCD camera (QImaging, Retiga EX) and analyzed by the computer-generated morphometric analysis system (Image-Pro Plus software, Media Cybernetics, Silver Springs, Md.) as previously described.
# [2] = test system: reactive oxygen species (ROS); assay: Intracellular ROS with CM-H2DCFDA probe (fluorescence microscope, flow cytophotometry); format: cell-based, human
# Procedure: Quantification of Intracellular free radicals-reactive oxygen species (ROS)—To assess the levels of ROS, quadruplicate cultures of normal skin fibroblasts were exposed to 10 μM of ROS-sensitive CM-H2DCFDA fluorescent probe (Molecular Probes, Eugene, Oreg.) for 30 minutes. This probe passively diffuses into the cell interior and only upon oxidation is a fluorescent product released that can be visualized under a fluorescent microscope or captured by flow cytophotometry when excited at 480 nm. Fibroblasts were then maintained for 30 minutes in the presence or absence of 400 μM probenecid, then incubated either for 2 or 24 hours with and without 100 μM AA or 100 μM SA. At the end of these periods the images were captured using a fluorescent microscope under identical parameters of contrast and brightness. The ROS production was also assessed by flow cytophotometry (λ excitation 480 nm; λ emission 520 nm), using FACSCalibur, Beckton Dickinson Instrument.
# [3] = test system: fibroblasts derived from dermal stretch marks; assay: Collagen and elastic fiber deposition in stretch-mark fibroblast cultures; format: cell-based, human; conditions: 200 μM, 24 hour-old cultures
# Procedure: Cell Cultures-Fibroblasts initially grew out from the explants of these full thickness skin biopsies and were maintained. The primary cultures of fat-derived fibroblasts obtained from Thermogenesis (Rancho Cordova, Calif.) were also tested. In all described experiments, 2-4 passages of both kinds of fibroblasts were used. In experiments aimed at assessing ECM production, cells were initially plated at a concentration of 100,000 cells/dish. […] Immuno-staining-All cultures maintained in the presence and absence of indicated reagents were either fixed in cold 100% methanol at -20° C. (for detection of elastin) or in 4% paraformaldehyde at room temperature (for detection of collagen I). The multiple parallel cultures were then incubated with 10 μg/ml of polyclonal antibody to tropoelastin (Elastin Products, Owensville, Mich.), or polyclonal antibody to collagen type I (Chemicon, Temecula, Calif.). Cultures were then incubated with the respective fluorescein-conjugated goat anti-rabbit, goat anti-mouse, or rabbit anti-goat secondary antibodies. Nuclei were counterstained with propidium iodide (Sigma, Sigma, St. Louis, Mo.). All of the cultures were then examined with a Nikon Eclipse […] microscope attached to a cooled CCD camera (QImaging, Retiga EX) and analyzed by the computer-generated morphometric analysis system (Image-Pro Plus software, Media Cybernetics, Silver Springs, Md.) as previously described. Quantitative Assays of Insoluble Elastin-Fibroblasts were grown to confluency in 35-mm culture dishes (100,000 cells/dish). Next, 2 μCi of [3H]-valine/ml (Amersham Biosciences Ltd. Oakville, Canada), were added to each dish along with or without the indicated treatments. At the end of each experiment, the levels of metabolically labeled NaOH-insoluble elastin present in individual cultures were assayed and normalized per their DNA content.
# [4] = test system: normal dermal fibroblasts; assay: Elastic fiber deposition (immuno-staining morphometry, [3H]-valine insoluble elastin) in monolayer cultures; format: cell-based, human; conditions: for elastogenic effects of 100 μM SA after pre-treatment with the inhibitor (mRNA, tropoelastin, insoluble elastin, elastic fibers): inhibitor pre-incubation then 100 μM SA, probenecid 400 μM
# Procedure: as §1, with “cells/dish.” for “cells/dish. Confluent cultures were then maintained either in serum-free medium (DMEM) or in medium supplemented with 5% FBS in the presence of different reagents that were added 1 hour before treatments with SA.”
# as §2
# Quantitative Assays of Insoluble Elastin—Fibroblasts were grown to confluency in 35-mm culture dishes (100,000 cells/dish). Next, 2 μCi of [3H]-valine/ml (Amersham Biosciences Ltd. Oakville, Canada), were added to each dish along with or without the indicated treatments. At the end of each experiment, the levels of metabolically labeled NaOH-insoluble elastin present in individual cultures were assayed and normalized per their DNA content.
# explants of dermal scars = assay: Organ culture of skin explants (histochemistry, insoluble elastin); format: cell-based, human; conditions: 1 mM DMOG alone
# Procedure: Organ culture of skin explants—Fragments of normal skin, stretch-marked skin and dermal scars collected during plastic surgery procedures were cut into multiple 4 mm2 pieces and maintained for 7 days in DMEM medium containing 5% FBS, […] The parallel quadruplicate explants from each experimental group were additionally maintained in the presence 2 μCi of [3H]-valine/ml and then subjected to the assay of insoluble elastin. The parallel explants from each experimental groups were also evaluated after pentachrome Movat's staining which allows for clear marking of elastic fibers. In each experimental group, 50 sections derived from quadruplicate explants were analyzed.
# IGF-1 receptor = biological target: T1, IGF-1 receptor (Homo sapiens, UniProt P08069); assay: IGF-1R phosphorylation (immuno-precipitation, anti-phospho-tyrosine Western blot); format: cell-based; conditions: pretreated and maintained with inhibitor, 100 μM SA
# T1 construct: immuno-precipitated with antibody to β subunit of IGF-1R and detected by Western blotting with anti-phospho-tyrosine antibody; endogenous in cells; host or cells: cultured dermal fibroblasts
# T1 sequence (P08069 741-1367 limits assumed): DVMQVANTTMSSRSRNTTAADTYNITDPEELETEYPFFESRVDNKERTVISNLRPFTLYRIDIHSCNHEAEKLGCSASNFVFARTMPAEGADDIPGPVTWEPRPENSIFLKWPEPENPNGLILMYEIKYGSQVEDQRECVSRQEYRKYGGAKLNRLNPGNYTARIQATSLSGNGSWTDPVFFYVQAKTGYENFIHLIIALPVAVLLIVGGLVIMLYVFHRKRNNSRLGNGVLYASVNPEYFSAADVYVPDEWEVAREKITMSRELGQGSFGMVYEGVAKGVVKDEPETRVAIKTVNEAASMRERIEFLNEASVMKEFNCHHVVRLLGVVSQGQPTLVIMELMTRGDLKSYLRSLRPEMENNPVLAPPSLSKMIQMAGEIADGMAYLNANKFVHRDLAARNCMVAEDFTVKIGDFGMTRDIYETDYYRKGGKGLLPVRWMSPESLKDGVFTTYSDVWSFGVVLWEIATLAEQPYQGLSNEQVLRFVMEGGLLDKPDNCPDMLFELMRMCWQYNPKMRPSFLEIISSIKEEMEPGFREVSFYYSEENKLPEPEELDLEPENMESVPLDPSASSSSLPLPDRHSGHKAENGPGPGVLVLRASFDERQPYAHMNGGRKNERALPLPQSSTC
# T1 sequence (P08069 31-736 partner limits assumed): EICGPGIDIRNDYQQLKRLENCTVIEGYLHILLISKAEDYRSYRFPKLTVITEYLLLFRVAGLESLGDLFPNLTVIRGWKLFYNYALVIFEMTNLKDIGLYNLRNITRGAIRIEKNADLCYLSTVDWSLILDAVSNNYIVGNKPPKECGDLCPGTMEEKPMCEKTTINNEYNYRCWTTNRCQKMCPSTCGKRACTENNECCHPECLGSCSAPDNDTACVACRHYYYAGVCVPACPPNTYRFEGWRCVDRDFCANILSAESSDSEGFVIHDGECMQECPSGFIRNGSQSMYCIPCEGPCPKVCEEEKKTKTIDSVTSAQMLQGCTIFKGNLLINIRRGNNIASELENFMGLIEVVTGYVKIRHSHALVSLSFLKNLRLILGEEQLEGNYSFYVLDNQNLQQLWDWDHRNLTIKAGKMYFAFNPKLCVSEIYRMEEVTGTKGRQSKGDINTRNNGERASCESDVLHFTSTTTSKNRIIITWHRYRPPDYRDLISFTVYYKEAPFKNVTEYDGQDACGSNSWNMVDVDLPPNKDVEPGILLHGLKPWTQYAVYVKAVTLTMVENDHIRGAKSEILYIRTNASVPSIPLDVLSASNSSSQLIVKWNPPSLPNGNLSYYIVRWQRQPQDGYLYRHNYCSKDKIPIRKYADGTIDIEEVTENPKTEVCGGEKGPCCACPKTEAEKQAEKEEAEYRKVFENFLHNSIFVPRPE
# Procedure: At the end of each experiment cells were submerged in the lysis buffer containing a broad-range phosphatase inhibitor. The polyclonal antibodies recognizing either the β subunits of the IGF-IR or the β subunit of the insulin receptor were immobilized on separate sets of the IgG-bearing magnetic beads (Invitrogen Canada Inc, Burlington, ON) and then incubated for 1 hour with the aliquots of the cell lysates containing 400 μg of protein as described in the manufacturer protocol. The beads bearing the resulting immuno-precipitation products were re-suspended in sample buffer and the released proteins were resolved with SDS-PAGE and subjected to Western blotting with a monoclonal anti-p-Tyr (PY99) antibody from Santa Cruz Biotechnology Inc. (Santa Cruz, Calif.) and then with HRP-conjugated goat anti-mouse secondary antibody.
# [5] = DMOG added along with 100 μM SA
compound,measurement,setting,value
"O=C1O[C@H]([C@@H](O)CO)C(O)=C1O [AA, L-ascorbic acid]",deposition of immuno-detected collagen fibers,"[1]; 100 μM, 24-hour-old cultures, 5% FBS",stimulated collagen deposition
same,levels of intracellular ROS,"[2]; 100 μM, 2 hours",did not display any decrease in ROS contents
same,production of elastic fibers / elastogenesis,[3],selective inhibition of new elastogenesis
"COc1ccc(CNc2nc(N(CCO)CCO)nc3c2ncn3C(C)C)cc1 [CVT313, reference compound]","elastogenic effects of 100 μM SA after pre-treatment with the inhibitor (mRNA, tropoelastin, insoluble elastin, elastic fibers)",[4]; 5% FBS,eliminated elastogenic effects of 100 μM SA
"COC(=O)CNC(=O)C(=O)OC [DMOG, reference compound]",SA-enhanced production of elastic fibers,[4]; [5],did not interfere with the enhanced production of elastic fibers; also recorded: does not diminish the elastogenic effect of SA
same,deposition of collagen fibers,[1]; [5],inhibits the deposition of collagen fibers
same,elastic fibers in ECM,explants of dermal scars,did not revealed any elastic fibers
"CC(C)(C)n1nc(-c2ccc(Cl)cc2)c2c(N)ncnc21 [PP2, reference compound]","elastogenic effects of 100 μM SA after pre-treatment with the inhibitor (mRNA, tropoelastin, insoluble elastin, elastic fibers)",[4]; 5% FBS,did not trigger elastogenic effects; also recorded: abolish all elastogenic effects
same,SA-induced enhancement of IGF-1R phosphorylation in inhibitor-pretreated cultures,IGF-1 receptor,eliminated
"COc1cc([C@@H]2c3cc4c(cc3[C@H](O)[C@H]3COC(=O)[C@@H]23)OCO4)cc(OC)c1OC [PPP, reference compound]",SA-induced enhancement of IGF-1R phosphorylation in inhibitor-pretreated cultures,IGF-1 receptor,eliminated
"CCCN(CCC)S(=O)(=O)c1ccc(C(=O)O)cc1 [probenecid, Probenecid, reference compound]",basic deposition of elastic fibers,"[4]; 100-400 μM probenecid alone, 24 hours, versus untreated control",did not demonstrate any decrease in their basic deposition of elastic fibers
same,"elastogenic effects of 100 μM SA after pre-treatment with the inhibitor (mRNA, tropoelastin, insoluble elastin, elastic fibers)",[4]; 5% FBS,eliminated the elastogenetic effects of 100 μM SA; also recorded: averts the induction of elastogenic effects
same,SA-induced decrease of ROS after probenecid pre-incubation,"[2]; probenecid pre-incubation, then 100 μM SA for 2 hours",could not be observed
"IGF-1: human IGF-I from Sigma-Aldrich, elastogenic stimulator",elastogenic effects,"[4]; 50 ng/ml exogenous IGF-1, 24-hour treatment, 5% FBS",strong elastogenic effects
"TGF-[…]1: elastogenic stimulator (TGF-β1, Greek letter lost)",elastogenesis,[4]; 1 ng/ml TGF-[…]1,increase in elastogenesis
